Assay [1] concerns NBD1. Kind of assay: Aggregation analysis using differential static light scattering (DSLS), thermal stability of NBD1. The assay is classed as binding, Human. To be noted: 100 μM compound; ΔTagg = Tagg minus average Tagg of DMSO control wells; NBD1 0.2 mg/ml. As for the experimental part: Example 23. Aggregation Analysis Using Differential Static Light Scattering (DSLS)
Purified recombinant NBD1 was produced using previously described methods (A. Schmidt, J. L. Mendoza, P. J. Thomas (2011) Biochemical and Biophysical Approaches to Probe CFTR Structure (365-376) M. D. Amaral, K. Kunzelmann (eds.), Cystic Fibrosis, Methods in Molecular Biology 741, Springer Science+Business Media). The effect of test compounds on thermal stability of NBD1 was evaluated by differential static light scattering (DSLS) using the Harbinger Stargazer-384 instrument (Epiphyte Three, Toronto, Canada). Test compounds were dissolved and diluted to desired concentrations in 100% DMSO. The compounds or DMSO controls (100 nL) were stamped into wells of a […] low volume optical plate (Corning Inc., Corning, NY) using the Echo 555 acoustic liquid handler (Labcyte Inc., San Jose, CA).
NBD1 protein was diluted to 0.2 mg/ml in S200 buffer (50 mM Tris-HCl, 150 mM NaCl, 5 mM MgCl2, 2 mM ATP, 2 mM DTT, pH7.6) containing 1% glycerol. 10 μL of protein solution was aliquoted into the 384-well plate harboring the test compounds and 10 μL mineral oil was overlayed onto the protein solution, using the epMotion robotic liquid handler (Eppendorf North America, Hauppauge, NY). After placing into the Stargazer instrument, the plate was heated at 1° C. per minute to 70° C. Images were captured from 25° C. to 70° C. every 0.5° C. At the end of the experiment run, instrument software integrated image files and analyzed data automatically. A linear regression curve was generated for each well, representing the increase in light scattering over time. A temperature of aggregation (Tagg) was calculated based on the inflection point of the curve. To better compare data across experiments the average Tagg for DMSO control wells was calculated and subtracted from values for wells containing compounds to obtain a “ΔTagg” value. These ΔTagg values reflect stabilizing efficacy of the compounds.

For assay [2], the target named is T1, CFTR (Homo sapiens, UniProt P13569, DEL508-508).
T1 construct: Primary human bronchial epithelial cells from a ΔF508 homozygous CF donor; host or cells: primary CF-HBE cells, ΔF508 homozygous donor
In words: TECC24 recording of CFTR-mediated transepithelial chloride transport in ΔF508 homozygous CF-HBE cells. The assay is classed as cell-based. The conditions noted are these: 48 hours incubation, AUC of forskolin-stimulated IEQ, test agent AUC divided by vehicle (DMSO) AUC, primary CF-HBE cells. As for the experimental part:
Example 24. TECC24 AUC Fold Over DMSO @10 μM
The effects of a test agent on CFTR-mediated transepithelial chloride transport was measured using TECC24 recording analysis. Test agents were solubilized in DMSO. Solubilized test agents were mixed with incubation medium containing DMEM/F12, Ultroser G (2%; Crescent Chemical, catalog #67042), Hyclone Fetal Clone 11 (2%; GE Healthcare, catalog #SH30066.02), bovine brain extract (0.25%; Lonza, catalog #CC-4098), insulin (2.5 μg/mL), IL-13 (10 ng/mL), hydrocortisone (20 nM), transferrin ([…]), triiodothyronine (500 nM), ethanolamine (250 nM), epinephrine (1.5 μM), phosphoethanolamine (250 nM), and retinoic acid (10 nM). Primary human bronchial epithelial cells from a ΔF508 homozygous CF donor (CF-HBE cells; from University of North Carolina Cystic Fibrosis Tissue Procurement Center), grown on Transwell HTS 24-well cell culture inserts (Costar, catalog #3378), were exposed to test agents or controls dissolved in incubation medium. The CF-HBE cells were cultured at 36.5° C. for 48 hours before TECC24 recordings were performed in the presence or absence of test agent, a positive control or vehicle (DMSO).
Following incubation, the transwell cell culture inserts containing the test agent or control-treated CF-HBE cells were loaded onto a TECC24 apparatus (TECC v7 or MTECC v2; EP Design) to record the transepithelial voltage (VT) and resistance (TEER) using 4 AgCl electrodes per well configured in current-clamp mode. The apical and basolateral bath solutions both contained (in mM) 140 NaCl, 5 KCl, 2 CaCl2), 1 MgCl2, 10 Hepes, and 10 glucose (adjusted to pH 7.4 with NaOH). To inhibit basal Na+ absorption, the ENaC inhibitor benzamil (10 μM) was added to the bath. Then, the adenylate cyclase activator, forskolin (10 μM), was added to the bath to activate CFTR. The forskolin-stimulated Cl− transport was halted by addition of CFTR inhibitor-172 (20 μM) to the bath at the end of the experiment to confirm specificity. VT and TEER recordings were digitally acquired at routine intervals using TECC or MTECC software (EP Design). VT and TEER were transformed into equivalent transepithelial Cl− current (IEQ), and the Area Under the Curve (AUC) of the IEQ time course between forskolin and CFTR inhibitor-172 addition is generated using Excel (Microsoft). Efficacy is expressed as the ratio of the test agent AUC divided by vehicle AUC. EC50s based on AUC are generated using the non-linear regression log(agonist) vs. response function in Prism software (Graphpad) with HillSlope fixed=1.
If a test agent increased the AUC of the forskolin-stimulated IEQ relative to vehicle in CF-HBE cells, and this increase was inhibited by CFTR inhibitor-172, then the test agent was considered a CFTR corrector.

The source of these data is US20260242388A1, “NBD1 MODULATORS AND METHODS OF USING THE SAME” (Sionna Therapeutics Inc., priority 2023, published 2026).

T1 sequence (P13569 with tags, fused parts or gaps DEL508-508): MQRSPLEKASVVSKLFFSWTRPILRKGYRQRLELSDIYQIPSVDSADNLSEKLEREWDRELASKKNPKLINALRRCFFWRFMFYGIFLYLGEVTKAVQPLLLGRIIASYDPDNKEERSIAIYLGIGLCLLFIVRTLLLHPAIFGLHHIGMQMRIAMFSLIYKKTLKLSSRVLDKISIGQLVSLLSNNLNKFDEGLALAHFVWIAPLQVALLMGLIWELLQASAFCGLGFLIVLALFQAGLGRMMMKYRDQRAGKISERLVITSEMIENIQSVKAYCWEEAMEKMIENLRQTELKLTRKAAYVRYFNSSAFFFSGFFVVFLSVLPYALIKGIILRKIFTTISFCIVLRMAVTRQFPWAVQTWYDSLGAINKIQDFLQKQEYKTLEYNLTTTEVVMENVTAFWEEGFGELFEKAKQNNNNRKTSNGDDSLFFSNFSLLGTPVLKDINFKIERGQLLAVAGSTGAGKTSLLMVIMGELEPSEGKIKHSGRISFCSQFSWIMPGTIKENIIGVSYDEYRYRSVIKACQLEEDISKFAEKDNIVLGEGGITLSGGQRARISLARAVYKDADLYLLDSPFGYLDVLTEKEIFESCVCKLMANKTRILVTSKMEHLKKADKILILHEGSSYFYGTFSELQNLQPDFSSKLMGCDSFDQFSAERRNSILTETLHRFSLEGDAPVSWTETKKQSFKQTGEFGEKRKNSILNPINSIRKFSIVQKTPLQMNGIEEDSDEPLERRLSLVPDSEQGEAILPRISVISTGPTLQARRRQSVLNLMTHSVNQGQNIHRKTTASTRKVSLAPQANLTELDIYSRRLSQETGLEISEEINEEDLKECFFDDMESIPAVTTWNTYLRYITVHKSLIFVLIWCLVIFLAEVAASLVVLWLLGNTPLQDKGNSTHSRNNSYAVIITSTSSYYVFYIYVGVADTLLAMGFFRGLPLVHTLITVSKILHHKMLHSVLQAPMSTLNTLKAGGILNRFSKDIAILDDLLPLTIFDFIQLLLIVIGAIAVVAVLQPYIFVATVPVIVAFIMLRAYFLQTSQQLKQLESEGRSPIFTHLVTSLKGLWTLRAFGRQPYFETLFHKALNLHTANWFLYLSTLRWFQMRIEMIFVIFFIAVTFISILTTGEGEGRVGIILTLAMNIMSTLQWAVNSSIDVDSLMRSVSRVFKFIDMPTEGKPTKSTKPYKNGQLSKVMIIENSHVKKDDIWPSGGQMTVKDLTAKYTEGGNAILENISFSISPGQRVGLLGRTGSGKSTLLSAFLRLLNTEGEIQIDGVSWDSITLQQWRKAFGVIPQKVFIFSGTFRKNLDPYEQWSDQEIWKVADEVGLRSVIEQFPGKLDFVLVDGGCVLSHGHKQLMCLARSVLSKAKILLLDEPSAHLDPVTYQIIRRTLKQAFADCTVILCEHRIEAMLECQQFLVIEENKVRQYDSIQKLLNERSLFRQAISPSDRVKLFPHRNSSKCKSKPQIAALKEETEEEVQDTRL

Turning to `O=C(O)CCc1cccc([C@H]2NCCc3nc(-c4cc(Oc5c(F)cc6[nH]ccc6c5F)ccc4F)[nH]c32)c1F` (single isomer, unassigned) [Example 3], the “DSLS NBD1/3D Human Stability delta-T (° C.) @ 100 (μM)” value (shortened to “DSLS NBD1/3D Human Stability delta-T”) in assay [1] is “A (T ≥ 8° C.)”. The “TECC24 @ 10 uM over DMSO” value in assay [2] is “A (AUC @10 uM >=12)”.

Take `O=C(O)Cc1cccc(C2OCCc3cn(-c4cc(Oc5c(F)cc6[nH]ccc6c5F)ccc4F)nc32)c1F` (stereo not drawn) [Example 1, 2-(3-(2-(5-((4,6-difluoro-1H-indol-5-yl)oxy)-2-fluorophenyl)-2,4,5,7-tetrahydropyrano[3,4-c]pyrazol-7-yl)-2-fluorophenyl)acetic acid]: the “DSLS NBD1/3D Human Stability delta-T” value in assay [1] is “B (4-8° C.)”. Besides, the “TECC24 @ 10 uM over DMSO” value in assay [2] is recorded as “C (AUC @10 uM <= 4)”.

On to `Cc1c(-c2cc(Oc3c(F)cc4[nH]ccc4c3S(C)(=O)=O)ccc2F)nc2n1CCNC2c1cccc(CC(C)C(=O)O)c1F` (stereo not drawn) [Example 8, 3-[2-fluoro-3-[2-[2-fluoro-5-[(6-fluoro-4-methylsulfonyl-1H-indol-5-yl)oxy]phenyl]-3-methyl-5,6,7,8-tetrahydroimidazo[1,2-a]pyrazin-8-yl]phenyl]-2-methyl-propanoic acid], for which, in assay [1], the “DSLS NBD1/3D Human Stability delta-T” value is given as “A (T ≥ 8° C.)”. Further, the “TECC24 @ 10 uM over DMSO” value in assay [2] is on record as “C (AUC @10 uM <= 4)”.

Take `CC(Cc1cccc(C2c3nc(-c4cc(Oc5c(F)cc6[nH]ccc6c5F)ccc4F)[nH]c3CCN2C)c1F)C(=O)O` (stereo not drawn) [Example 11, 3-[3-[2-[5-[(4,6-difluoro-1H-indol-5-yl)oxy]-2-fluoro-phenyl]-5-methyl-1,4,6,7-tetrahydroimidazo[4,5-c]pyridin-4-yl]-2-fluoro-phenyl]-2-methyl-propanoic acid]: the “DSLS NBD1/3D Human Stability delta-T” value in assay [1] is listed as “A (T ≥ 8° C.)”. In addition, the “TECC24 @ 10 uM over DMSO” value in assay [2] is reported as “C (AUC @10 uM <= 4)”.

On to `O=C(O)CCc1cccc(C2c3nc(-c4cc(Oc5c(F)cc6[nH]ccc6c5F)ccc4F)[nH]c3CCN2CC(F)F)c1F` (stereo not drawn) [Example 12, 3-[3-[5-(2,2-difluoroethyl)-2-[5-[(4,6-difluoro-1H-indol-5-yl)oxy]-2-fluoro-phenyl]-1,4,6,7-tetrahydroimidazo[4,5-c]pyridin-4-yl]-2-fluoro-phenyl]propanoic acid], for which the “DSLS NBD1/3D Human Stability delta-T” value in assay [1] is recorded as “A (T ≥ 8° C.)”. Further, the “TECC24 @ 10 uM over DMSO” value in assay [2] was “B (AUC @10 uM between 4-12)”.

Take `CS(=O)(=O)c1c(Oc2ccc(F)c(-c3nc4c([nH]3)C(c3cccc(CCC(=O)O)c3F)NCCC4)c2)c(F)cc2[nH]ccc12` (stereo not drawn) [Example 22, 3-[2-fluoro-3-[2-[2-fluoro-5-[(6-fluoro-4-methylsulfonyl-1H-indol-5-yl)oxy]phenyl]-3,4,5,6,7,8-hexahydroimidazo[4,5-c]azepin-4-yl]phenyl]propanoic acid]: the “DSLS NBD1/3D Human Stability delta-T” value in assay [1] is recorded as “A (T ≥ 8° C.)”. The “TECC24 @ 10 uM over DMSO” value in assay [2] is given as “C (AUC @10 uM <= 4)”.
